Reference: patent US20090118202A1, “COMPOSITIONS AND METHODS OF TREATING HYPERTENSION WITH TANNIN COMPLEXES” (Texas Tech University, priority 2007, published 2009)

What was measured:
AT1 receptor = experiment: AT1 specific AngII binding in WB cells exposed to tannic acid; format: cell-based, rat; conditions: pretreatment of cells with the inhibitor
Method: The present invention provides the use of hydrolysable tannic acids to affect angiotensin type 1 (AT1) receptor expression. The present invention used WB (i.e., a continuously passaged rat liver epithelial cell line) which expresses the native AT1 receptor. Under normal culture conditions, cells were exposed to tannic acid and changes in receptor expression and signaling intermediates were determined.
FIG. 3A is an image of a plot illustrating the effects of tannic acid on native AT1, rat liver cells were exposed to tannic acid at indicated concentration for 20 hours.

MAP-kinases p42 and p44 = experiment: MAP-kinase phosphorylation in rat liver cells exposed to tannic acid (Western blot); format: cell-based; conditions: pretreatment of cells with the inhibitor
Method: FIGS. 6A-6C are images of a Western blot illustrating rat liver cells exposed to tannic acid in the presence or absence of the MAP-Kinase specific cell permeable inhibitor PD 98059 for 20 hours and total cell extracts were prepared. Equal amount of proteins were resolved by 8% polyacrylamide gel electrophoresis and immunoblotted with phospho-specific MAP-Kinase antibody in FIG. 6A, anti-MAP-kinase antibody in FIG. 6B, AT1 specific antibody in FIG. 6C top or anti-beta-actin antibody in FIG. 6C bottom. Immunoreactive bands were visualized using a chemiluminescence Western blotting system according to the manufacturer's instruction. In each plate protein concentration was determined using Bio-Rad protein assay reagent.

`COc1cccc(-c2cc(=O)c3ccccc3o2)c1N` [MAP kinase specific inhibitor, PD98059] was tested, and the “prevention of tannic acid induced down regulation of the AT1 receptor” value (AT1 receptor) was “ineffective” and the “prevention of tannic acid induced MAP-kinases phosphorylation” value (MAP-kinases p42 and p44) was “ineffective”.
